# Test results: patent US9579364B2, “Methods for treating benign prostatic hypertrophy (BPH)” (New York University, priority 2002, dated 2017)
# Several values for one entry are separate records, joined by “and”; a condition that tells them apart may be missing. Identical values can stand only once. Numbered stars: 1 amine (or outer) side, 2 acyl side, 3 side chain; on linkers, the order of the positions; unused ones are H or OH. Square brackets hold non-standard residues; d marks the D form. Side chains are listed from the residue outwards. Peptide text beside a SMILES is read from it. * marks the point of attachment. Ethylenediamine = C(CN[*:2])N[*:1]; Hyp = O=C(O)[C@@H]1C[C@@H](O)CN1; Phg = N[C@H](C(=O)O)c1ccccc1; CO = O=C([*:1])[*:2]; Bn = c1ccc(C*)cc1
# B1: IGFBP-1: insulin-like growth factor binding protein, inhibitor of IGF-I action (protein, UniProt P08833 26-259, looked up)
# Insulin-like growth …: APWQCAPCSAEKLALCPPVSASCSEVTRSAGCGCCPMCALPLGAACGVATARCARGLSCRALPGEQQPLHALTRGQGACVQESDASAPHAAEAGSPESPESTEITEEELLDNFHLMAPSEEDHSILWDAISTYDGSKALHVTNIKKWKEPCRIELYRVVESLAKAQETSGEEISKFYLPNCNKNGFYHSRQCETSMDGEAGLCWCVYPWNGKRIPGSPEIRGDPNCQIYFNVQN
# Columns and labels:
# [1] = test system: prostate of estradiol-treated male Wistar rats; assay: Estradiol-treated male Wistar rat model of BPH; assay type: in vivo; conditions: for mean gland size: difference not significant
# Source text: To evaluate further the efficacy of somatostatin 14 (SS-14) in the treatment of BPH and related urinary tract obstruction, the present inventors used an animal model system in which prostate hyperplasia, together with prostatitis is induced by administration of estradiol to male Wistar rats. The estradiol-treated Wistar rat animal model system was originally described by Robinette (1988, The Prostate 12:271-286; the content of which is incorporated herein in its entirety) as offering an animal model of the inflammation and fibromuscular growth observed in human BPH. Robinette also described the estradiol-treated Wistar rat animal model system as useful for identifying factors and/or xenobiotics that can inhibit or potentially reverse progression of prostatic fibromuscular proliferation. Wilson et al. (Exp Mol Pathol. 2004; 77:7-17; the content of which is incorporated herein in its entirety) also presented guidance pertaining to the estradiol-treated Wistar rat animal model system of Robinette, offering that chronic inflammation induced in the lateral prostate by estrogen treatment is accompanied later by fibromuscular proliferation, which correlates with the prevalence of chronic inflammation in BPH in men. To assay the therapeutic benefit of IGF-I inhibitors in an animal model system, the present inventors utilized the animal model system of Robinette (supra), as modified in accordance with standard methodology as set forth herein.
# Three month old Wistar rats were treated for 2 weeks with 1-cm long 0.078 i.d.×0.125 o.d. Silastic tubings filled with estradiol (E2). Another group of estradiol treated animals was also given SS-14 via Alzet pump implanted into the subcutaneous fat of the back, at a dosage of 15 μg/kg/hour. At the end of the treatment period animals were sacrificed and prostates removed en bloc. A total of four animals were analyzed per group.
# Prior to fixing and embedding, prostates were weighed. Bladder and coagulating glands were removed and the remaining tissues were embedded with urethral opening down. Blocks were then sectioned at 150 μm intervals.
# The effect on total area of prostate occupied by glands was also assessed. To determine whether SS-14 would have an inhibitory effect on the glandular component of the prostate, the area of the organ occupied by glands in transverse sections, including the urethra and cut at the level at which the width of the prostate was maximal, was measured. Gland area is expressed as it relates to the total area of the organ in transverse sections.
# The effect of SS-14 on the Fibromuscular Compartment surrounding the Urethra was also evaluated. To determine whether SS-14 reduced the fibromuscular component of the urethra, tissue sections were immunostained for smooth muscle α actin (αSMA). Each prostate was cut at 5 different levels, with 150 microns between each set of sections. The results of αSMA staining are shown in the photomicrographs depicted in FIG. 8; the whole urethra is indicated by circles and the surrounding fibromuscular layer by arrows.
# mammary gland = conditions: cited from earlier work
# [2] = test system: prostate of intact 28 day old male mice; assay: PQ401 or SS14 treatment of intact 28 day old male mice: prostate; assay type: in vivo
# Procedure: To examine further the effect of various compounds on glandular and fibromuscular development of the prostate, somatostatin-14 (SS14, a native somatostatin) and an exemplary small molecule IGF-I receptor inhibitor PQ401 were assessed in a variety of animal models.
# (§1) In a first experimental approach, the effect of treatment of intact 28 day old male mice with vehicle or PQ401 (a small molecule IGF-I receptor specific inhibitor) or somatostatin-14 (SS14; a native somatostatin) was evaluated. PQ401 and SS14 inhibit IGF-I action. For these experiments, N=5 mice per group. The results of these experiments are presented below in Tables 7-10: […]
# [3] = PQ401 or SS14 treatment of intact 28 day old male mice: body weight; assay type: in vivo
# Procedure: as §1
# [4] = test system: patients suffering from acromegaly; conditions: acromegalic patients, 1 year, cited from earlier work
# [5] = test system: prostate of intact wild-type male mice; assay: IGFBP-1 effect on prostate development in 4-wk-old intact wild-type male mice; assay type: in vivo
# Procedure: FIG. 7 depicts the effect of IGFBP-1 treatment on prostate structures in intact 28 day old male mice. After 7 d of treatment with IGFBP-1 or vehicle, prostate development in both fibromuscular and glandular compartments was analyzed. Effects on fibromuscular development (A), epithelial development (B), lumen size (C), total prostate area (D), and prostate weight (E) are shown. Effects of IGFBP-1 (compared with control) on cell division and programmed cell death are shown in representative photomicrographs (F) showing the effect of IGFBP-1 (lower row) on cell division (left) and apoptosis (right) compared with control animals (top row) Arrows point to Ki67 or TUNEL staining in stroma, and arrows point to those effects in glands. Magnification, 400×. Effects of Ki67 staining (G) for cell division (left) and effects on programmed cell death by TUNEL (right). WT, Wild type.
# Eugonadal intact mice. The effect of treatment with IGH3P-1 on prostate development in 4-wk-old intact wild-type male mice was also studied. When compared with saline-treated control animals, IGFBP-1 inhibited all fibromuscular development, epithelial development, lumen size, prostate area, and prostate weight (FIG. 7, A-E). IGFBP-1 inhibited cell division in the epithelial compartment, and increased apoptosis in both fibromuscular and epithelial compartments (FIGS. 7, F and G).
# [6] = 4-wk-old intact wild-type male mice (FIG. 7, F and G)
molecule,measurement,setting,value
"C[C@]12CC[C@@H]3c4ccc(O)cc4CC[C@H]3[C@@H]1CC[C@@H]2O [E2, estradiol]","Weight of prostates, individual animals","[1]; 3 month old Wistar rats, E2 2 weeks, SS-14 15 μg/kg/hour by Alzet pump, Animal #1-#4",0.570 grams and 0.580 grams and 0.532 grams and 0.630 grams
same,MEAN WEIGHT of prostates,"[1]; 3 month old Wistar rats, E2 2 weeks, SS-14 15 μg/kg/hour, second set of experiments, p=0.019",0.578 grams
same,"Ratio between the prostate area occupied by glandular elements and the whole organ area in transverse sections, individual animals",[1]; E2-treated Wistar rats,0.8467 and 0.857 and 0.8758 and 0.8596
same,"Fibromuscular Layer Area of the urethra, MEAN AREA","[1]; E2-treated Wistar rats, αSMA immunostaining",2.938 mm2
same,"Fibromuscular Layer Area of the urethra, individual animals","[1]; E2-treated Wistar rats, αSMA immunostaining, Animal #1-#4",3.412 mm2 and 1.822 mm2 and 2.369 mm2 and 4.149 mm2
same,mean gland size,[1]; E2-treated Wistar rats,0.099 mm^2
same,"Ratio between the prostate area occupied by glandular elements and the whole organ area in transverse sections, AVERAGE","[1]; E2-treated Wistar rats, p=0.028",0.860
"NCCCC[C@@H]1NC(=O)[C@@H](Cc2c[nH]c3ccccc23)NC(=O)[C@H](c2ccccc2)NC(=O)[C@@H]2C[C@@H](OC(=O)NCCN)CN2C(=O)[C@H](Cc2ccccc2)NC(=O)[C@H](Cc2ccc(OCc3ccccc3)cc2)NC1=O [SOM230, pasireotide] (cyclo(F[Hyp]([CO-Ethylenediamine])[Phg][dW]KY(Bn)))",mammary development in rats,mammary gland,prevent mammary development
same,IRS-1 phosphorylation in the mammary gland,mammary gland; rats,reduction
"C[C@H](N)C(=O)NCC(=O)N[C@H]1CSSC[C@@H](C(=O)O)NC(=O)[C@H](CO)NC(=O)[C@H]([C@@H](C)O)NC(=O)[C@H](Cc2ccccc2)NC(=O)[C@H]([C@@H](C)O)NC(=O)[C@H](CCCCN)NC(=O)[C@H](Cc2c[nH]c3ccccc23)NC(=O)[C@H](Cc2ccccc2)NC(=O)[C@H](Cc2ccccc2)NC(=O)[C@H](CC(N)=O)NC(=O)[C@H](CCCCN)NC1=O [SS14, Somatostatin-14]",area of the Longitudinal muscle,"[2]; 28 day old male mice, controls 0.939",0.486 mm^2
same,total area of the Circular muscle,"[2]; 28 day old male mice, controls 1.322",0.438 mm^2
same,% Reduction of prostate weight,"[2]; intact 28 day old male mice, vs 28 day control",37%
same,mean gland size,[1]; E2-treated Wistar rats,0.078 mm^2
same,"prostate weight of E2-treated rats, first set of experiments","[1]; vs control E2-treated rats (vehicle only), p=0.024",significant reduction
same,Body weight,[3]; controls 26.9 ± 0.3,23.9 ± 0.3 gm
same,% Reduction of body weight,[3]; vs controls,11%
octreotide,circulating GH and IGF-I levels,[4]; in most of the patients treated,normalization
same,prostate volume,[4],reduction
B1,apoptosis in both fibromuscular and epithelial compartments (TUNEL),[5]; [6],increased
same,cell division in the epithelial compartment (Ki67),[5]; [6],inhibited
same,"fibromuscular development, epithelial development, lumen size, prostate area, and prostate weight","[5]; 4-wk-old intact wild-type male mice, 7 d, vs saline-treated control (FIG. 7, A-E)",inhibited
